The subject of data set [1] is Rattus norvegicus. In words: Reversal of hypersensitivity in po dosed FCA rat model of inflammatory pain. It is filed as functional.
Data set [2] is described as follows: Blood clearance in rat. It is filed as ADME, organism-based.
A short description of data set [3]: Volume of distribution at steady state in rat. Format: ADME, organism-based. The following applies: in vivo, read-out: Vss.
The target of data set [4] is T1, Prostaglandin E2 receptor EP1 subtype (Homo sapiens, UniProt P34995).
T1 sequence (P34995 whole entry): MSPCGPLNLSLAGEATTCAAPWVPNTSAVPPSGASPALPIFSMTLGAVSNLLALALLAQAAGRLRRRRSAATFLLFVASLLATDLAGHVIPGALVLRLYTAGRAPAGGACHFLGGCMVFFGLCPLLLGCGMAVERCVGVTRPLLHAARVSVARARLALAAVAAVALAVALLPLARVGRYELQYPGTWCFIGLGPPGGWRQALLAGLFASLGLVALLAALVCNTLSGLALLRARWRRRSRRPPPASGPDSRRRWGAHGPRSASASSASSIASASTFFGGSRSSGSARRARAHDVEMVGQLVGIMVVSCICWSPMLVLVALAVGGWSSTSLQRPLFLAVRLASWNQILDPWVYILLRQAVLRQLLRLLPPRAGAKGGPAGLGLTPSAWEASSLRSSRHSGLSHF
The experiment in a line: Displacement of [3H]PGE2 from human recombinant EP1 receptor expressed in CHOK1 cell membrane. It is filed as cell membranes, CHO-K1.

The nature of data set [5]: Tmax in rat at 3 mg/kg, po. Also noted: dose 3 mg/kg, route oral. To be noted: in vivo. It is filed as ADME, organism-based.
A short description of data set [6]: Cmax in rat at 3 mg/kg, po. It is filed as ADME, organism-based. Also noted: dose 3 mg/kg, route oral. The following applies: in vivo.
Data set [7] concerns Rattus norvegicus. The experiment in a line: Normalized AUC (0 to t) in rat at 3 mg/kg, po. Further details: dose 3 mg/kg, route oral. To be noted: in vivo. Format: ADME, organism-based.
Data set [8] deals with Rattus norvegicus. The experiment in a line: Reversal of hypersensitivity in FCA rat model of inflammatory pain at 5 mg/kg, po. It is filed as functional.

Molecules are shown by their SMILES.

Regarding `Cc1ccc(-c2cc(Br)ccc2OCc2ccc(F)cc2)n1-c1cccc(C(=O)O)c1`, in the data set on Rattus norvegicus [1], the ED50 worked out at 9.2 mg/kg. For the same compound, the clearance in data set [2] was 42 mL/min/kg. Besides, the Vd in data set [3] amounted to 0.7 L/kg.
As to `Cc1ccc(-n2c(C)ccc2-c2cc(Br)ccc2OCc2ccc(F)cc2F)cc1C(=O)O`, the IC50 in data set [4] is 1.26 nM.
For the compound `COc1ccc(-n2c(C)ccc2-c2cc(Br)ccc2OCc2ccc(F)cc2F)cc1C(=O)O`, in data set [4], the IC50 is 0.398 nM. Further, the Tmax in data set [5] was 30 min. This compound also yielded a Cmax in data set [6] of 340 nM. Also, in the data set on Rattus norvegicus [7], the AUC/dose was determined as 4 kg·min/L.
The corresponding values for `Cc1ccc(-c2cc(Cl)ccc2OCc2ccccc2)n1-c1cc(C(=O)O)c2ccccc2c1` are 6.31 nM, 240 min, 220 nM and 9 kg·min/L.
In the case of `CC(=O)Nc1ccc(-n2c(C)ccc2-c2cc(Br)ccc2OCc2ccc(F)cc2F)cc1C(=O)O`, the concentration for half-maximal inhibition (IC50) in data set [4] was 0.398 nM.
For `Cc1ccc(-c2cc(C(F)(F)F)ccc2OCc2ccccc2)n1-c1ccc(F)c(C(=O)O)c1`, in the data set with Rattus norvegicus [8], the Activity is on record as 56%. The IC50 in data set [4] is 2 nM. Besides, the Tmax in data set [5] was determined as 36 min. Moreover, the Cmax in data set [6] is 870 nM. For the same compound, the AUC/dose in the data set on Rattus norvegicus [7] worked out at 27 kg·min/L.
As to `Cc1ccc(-c2cc(F)ccc2OCc2ccc(F)cc2)n1-c1cc(C(=O)O)c2ccccc2c1`, the IC50 in data set [4] is 25.1 nM.
Still for that read-out and setting: for `Cc1ccc(-c2cc(Br)ccc2OCc2ccc(F)cc2)n1-c1ccc(OC(F)F)c(C(=O)O)c1` the value was 2 nM.
With `Cc1c(N)cc(-n2c(C)ccc2-c2cc(Br)ccc2OCc2ccc(F)cc2)cc1C(=O)O`, the Activity with Rattus norvegicus [8] came out at 50%. Also, in data set [4], the IC50 was 0.794 nM. Also, in data set [5], the Tmax turned out to be 66 min. In addition, the highest level in data set [6] (Cmax) was 1350 nM. For the same compound, the AUC/dose in the data set with Rattus norvegicus [7] was 52 kg·min/L.
Consider `Cc1c(N)cc(-n2c(C)ccc2-c2cc(C(F)(F)F)ccc2OCc2ccccc2)cc1C(=O)O`, for which the Activity in the data set with Rattus norvegicus [8] was 40%. Besides, the IC50 in data set [4] was 3.98 nM. Moreover, in data set [5], the Tmax came out at 30 min. The compound also returned a Cmax in data set [6] of 910 nM. This compound also yielded an AUC/dose in the data set on Rattus norvegicus [7] of 31 kg·min/L.
`Cc1ccc(-c2cc(Br)ccc2OCc2ccc(F)cc2F)n1-c1ccc(O)c(C(=O)O)c1`: the IC50 in data set [4] is 2 nM.
The same measure, in the same setting: for `Cc1ccc(OCc2ccc(F)cc2)c(-c2ccc(C)n2-c2ccc(F)c(C(=O)O)c2)c1` the value was 15.8 nM.
As to `Cc1c(N)cc(-n2c(C)ccc2-c2cc(Cl)ccc2OCc2ccccc2)cc1C(=O)O`, in the data set on Rattus norvegicus [8], the Activity worked out at 35%. Moreover, the IC50 in data set [4] was 2 nM. Moreover, the Tmax in data set [5] worked out at 30 min. In data set [6], the concentration peaked (Cmax) at 2940 nM. In addition, the AUC/dose in the data set on Rattus norvegicus [7] was 39 kg·min/L.
Turning to `Cc1ccc(-c2cc(C(F)(F)F)ccc2OCc2ccc(F)cc2)n1-c1ccc(F)c(C(=O)O)c1`, in data set [4], the IC50 was 7.94 nM.
For `Cc1ccc(-c2cc(Br)ccc2OCc2ccc(F)cc2F)n1-c1ccc(OC(F)F)c(C(=O)O)c1`, the IC50 in data set [4] is 0.631 nM.
On to `Cc1ccc(OCc2ccc(F)cc2)c(-c2ccc(C)n2-c2cc(N)c(C)c(C(=O)O)c2)c1`, for which the IC50 in data set [4] is 15.8 nM.
Same read-out and setting: for `Cc1ccc(-c2cc(F)ccc2OCc2ccc(F)cc2)n1-c1ccc(F)c(C(=O)O)c1` the value was 12.6 nM; for `Cc1ccc(-c2cc(Br)ccc2OCc2ccc(F)cc2)n1-c1ccc(Cl)c(C(=O)O)c1`, 2.51 nM.
Consider `Cc1ccc(-c2cc(Br)ccc2OCc2ccccc2)n1-c1ccc(OC(F)F)c(C(=O)O)c1`, for which the IC50 in data set [4] was 5.01 nM.
Regarding `Cc1c(N)cc(-n2c(C)ccc2-c2cc(C(F)(F)F)ccc2OCc2ccc(F)cc2)cc1C(=O)O`, the IC50 in data set [4] is 3.98 nM.
Same read-out and setting: for `Cc1ccc(-c2cc(Cl)ccc2OCc2ccccc2)n1-c1cc(C(=O)O)c2cc[nH]c2c1` the value was 1.26 nM.
Still for that read-out and setting: for `Cc1c(N)cc(-n2c(C)ccc2-c2cc(Br)ccc2OCc2ccccc2)cc1C(=O)O` the value was 3.16 nM; for `Cc1ccc(OCc2ccc(F)cc2)c(-c2ccc(C)n2-c2cc(C(=O)O)c3ccccc3c2)c1`, 79.4 nM.
Regarding `Cc1ccc(-c2cc(Br)ccc2OCc2ccc(F)cc2F)n1-c1cc(C(=O)O)c2ccccc2c1`, in data set [4], the IC50 was 2.51 nM.
The same measure, in the same setting: for `Cc1ccc(-n2c(C)ccc2-c2cc(Cl)ccc2OCc2ccc(F)cc2F)cc1C(=O)O` the value was 2.51 nM; for `Cc1ccc(-c2cc(Br)ccc2OCc2ccc(F)cc2)n1-c1ccc(F)c(C(=O)O)c1`, 1.26 nM.
The same measure, in the same setting: next, `Cc1ccc(-c2cc(Br)ccc2OCc2ccccc2)n1-c1cc(C(=O)O)c2ccccc2c1`: 12.6 nM.
As to `Cc1ccc(-c2cc(Br)ccc2OCc2ccc(F)cc2)n1-c1cc(C(=O)O)c2ccccc2c1`, the IC50 in data set [4] is 5.01 nM. Also, in data set [5], the Tmax was determined as 30 min. For the same compound, the Cmax in data set [6] worked out at 520 nM. Besides, the AUC/dose in the data set with Rattus norvegicus [7] worked out at 9 kg·min/L.

As a reminder, the ED50 is the dose at which the effect has come halfway, by size or by number of responders. As a reminder, the clearance is a measure of how efficiently the substance is removed, as volume per time. The low end stands for a low capacity for elimination, the high end for a high capacity for elimination. The term IC50 denotes the concentration at which inhibition is half-maximal. In general, Tmax refers to the time from dosing to the highest level. Usually Cmax stands for the peak of the concentration-time curve.

These data come from ChEMBL document CHEMBL1144577, “1,5-Biaryl pyrrole derivatives as EP1 receptor antagonists. Structure-activity relationships of 6-substituted and 5,6-disubstituted benzoic acid derivatives” (Bioorg Med Chem Lett, 2007).
